In EP4095134A1, “POLYCYCLIC COMPOUNDS FOR THE TREATMENT OF NEUROLOGICAL INDICATIONS” (UCL Business Ltd, priority 2021, dated 2022):

Molecular target: T1, P2Y1 receptor (Homo sapiens, UniProt P47900)
T1 construct: expressed in transfected cells
Assay: P2Y1 IP1 accumulation HTRF assay, antagonism of agonist MRS2365 in stably transfected cells
Format: cell-based
Settings: racemic; 5nM MRS2365; values rounded to nearest whole number; N >= 4
Method: IC50 values were determined using a cell based assay in stably transfected cells overexpressing the P2Y1 receptor. The assay system is a […] (HTRF) assay measuring accumulation of the intracellular messenger inositol monophosphate (IP1), generated intracellularly following activation of P2Y1. Activity of test compounds was generated by measuring antagonism of the increase in IP1 generated by addition of a selective P2Y1 agonist, MRS2365.
P2Y1 overexpressing cells were maintained in T175 flasks. The day before the assay, these cells were split and 20µl cell suspension transferred to each well of white 384-well assay plates at a cell density of 0.5x10^6 cells/mL. Plates were pulse centrifuged, then incubated overnight at 37°C / 5% CO2 prior to assay.
On day of assay, medium was removed from cells and replaced with stimulation buffer. Compounds were prepared in 100% DMSO for addition to cells using the Tecan D300e digital dispenser; compounds were prepared in cassette heads and added directly to wells in the required concentration range, to give a 10-point concentration response curve from 10µM with semi-log dilutions and a final DMSO concentration of 0.1%. Positive control antagonist curves with standard compounds were included on each plate. Plates were incubated with antagonists for 1 hour prior to addition of 5nM of the agonist MRS2365, dispensed using a Bravo liquid handler. Following agonist addition, plates were incubated for 60 minutes prior to assay. Both incubations were carried out at 37°C / 5% CO2.
For the assay, IP1 accumulation was quantified using the IPOne kit according to manufacturer's instructions. In short, a standard curve was prepared for IP 1 quantification, and cells lysed using kit lysis buffer. Assay reagents were added to the lysates, and incubated for 1 hour at room temperature without spinning or shaking. Plates were analysed on a BMG Pherastar plate reader, and IP1 signal generated in cells interpolated from the standard curve.
For all reported results, N is greater than or equal to 4. An individual N refers to one assay run with a single weighing of compound. A minimum of two assay runs were performed for each of two independent weighings of compound. Results (racemic)

T1 sequence (P47900 whole entry): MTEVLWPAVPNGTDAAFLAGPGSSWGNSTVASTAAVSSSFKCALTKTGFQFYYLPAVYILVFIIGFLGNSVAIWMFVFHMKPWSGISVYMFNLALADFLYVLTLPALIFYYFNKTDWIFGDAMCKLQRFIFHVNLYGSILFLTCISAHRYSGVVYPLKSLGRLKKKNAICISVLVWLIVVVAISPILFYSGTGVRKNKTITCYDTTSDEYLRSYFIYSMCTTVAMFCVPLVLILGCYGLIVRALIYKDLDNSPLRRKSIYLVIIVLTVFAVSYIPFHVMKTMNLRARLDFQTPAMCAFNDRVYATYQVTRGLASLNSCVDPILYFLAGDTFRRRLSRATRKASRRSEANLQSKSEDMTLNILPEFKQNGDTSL

| IC50 | SMILES |
| --- | --- |
| 560 nM | COc1ccc(NC(=O)Nc2cccnc2Oc2ccccc2C2(C(F)(F)F)CCO2)cc1F (racemic) [S55, 1-(3-fluoro-4-methoxyphenyl)-3-(2-(2-(2-(trifluoromethyl)oxetan-2-yl)phenoxy)pyridin-3-yl)urea] |
| 587 nM | Cc1ccc(NC(=O)Nc2ccc(C#N)cc2F)c(Oc2ccc(F)cc2C2(C(F)(F)F)CCO2)n1 (racemic) [S56, 1-(4-cyano-2-fluorophenyl)-3-(2-(4-fluoro-2-(2-(trifluoromethyl)oxetan-2-yl)phenoxy)-6-methylpyridin-3-yl)urea] |
| 589 nM | COc1ccc(F)c(NC(=O)Nc2cccnc2Oc2ccc(F)cc2C2(C(F)(F)F)CCO2)c1 (racemic) [S57, 1-(2-(4-fluoro-2-(2-(trifluoromethyl)oxetan-2-yl)phenoxy)pyridin-3-yl)-3-(2-fluoro-5-methoxyphenyl)urea] |
| 639 nM | Cc1ncc(NC(=O)Nc2ccc(Cl)cc2F)c(Oc2ccccc2C2(C(F)(F)F)CCO2)n1 (racemic) [S58] |
| 644 nM | Cc1ncc(NC(=O)Nc2ccc(OC(F)(F)F)cc2)c(Oc2ccccc2C2(C(F)(F)F)CCO2)n1 (racemic) [S59, 1-(2-methyl-4-(2-(2-(trifluoromethyl)oxetan-2-yl)phenoxy)pyrimidin-5-yl)-3-(4-(trifluoromethoxy)phenyl)urea] |
| 735 nM | O=C(Nc1ccccc1)Nc1cccnc1Oc1ccccc1C1(C(F)(F)F)CCO1 (racemic) [S60, 1-phenyl-3-(2-(2-(2-(trifluoromethyl)oxetan-2-yl)phenoxy)pyridin-3-yl)urea] |
| 768 nM | O=C(Nc1cc2c(cc1F)OCO2)Nc1cccnc1Oc1ccccc1C1(C(F)(F)F)CCO1 (racemic) [S61, 1-(6-fluorobenzo[d][1,3]dioxol-5-yl)-3-(2-(2-(2-(trifluoromethyl)oxetan-2-yl)phenoxy)pyridin-3-yl)urea] |
| 807 nM | O=C(Nc1ccc(CN2CC(F)(F)C2)cc1)Nc1cccnc1Oc1ccccc1C1(C(F)(F)F)CCO1 (racemic) [S62, 1-(4-((3,3-difluoroazetidin-1-yl)methyl)phenyl)-3-(2-(2-(2-(trifluoromethyl)oxetan-2-yl)phenoxy)pyridin-3-yl)urea] |
| 844 nM | Cc1ccc(NC(=O)NC2CC3(CCC3)C2)c(Oc2ccc(F)cc2C2(C(F)(F)F)CCO2)n1 (racemic) [S63, 1-(2-(4-fluoro-2-(2-(trifluoromethyl)oxetan-2-yl)phenoxy)-6-methylpyridin-3-yl)-3-(spiro[3.3]heptan-2-yl)urea] |
| 926 nM | Cc1ncc(NC(=O)Nc2ccc(Cl)c(F)c2)c(Oc2ccccc2C2(C(F)(F)F)CCO2)n1 (racemic) [S64, 1-(4-chloro-3-fluorophenyl)-3-(2-methyl-4-(2-(2-(trifluoromethyl)oxetan-2-yl)phenoxy)pyrimidin-5-yl)urea] |
| 983 nM | O=C(Nc1ccc(F)cc1F)Nc1cccnc1Oc1ccccc1C1(C(F)(F)F)CCO1 (racemic) [S65, 1-(2,4-difluorophenyl)-3-(2-(2-(2-(trifluoromethyl)oxetan-2-yl)phenoxy)pyridin-3-yl)urea] |
| 1020 nM | Cc1ccc(NC(=O)Nc2ccc(C#N)cc2)c(Oc2ccc(F)cc2C2(C(F)(F)F)CCO2)n1 (racemic) [S66, 1-(4-cyanophenyl)-3-(2-(4-fluoro-2-(2-(trifluoromethyl)oxetan-2-yl)phenoxy)-6-methylpyridin-3-yl)urea] |
| 1060 nM | COc1cc(NC(=O)Nc2ccc(C)nc2Oc2ccccc2C2(C(F)(F)F)CCO2)ccc1F (racemic) [S67, 1-(4-fluoro-3-methoxyphenyl)-3-(6-methyl-2-(2-(2-(trifluoromethyl)oxetan-2-yl)phenoxy)pyridin-3-yl)urea] |

Continued, compound first:

| SMILES | IC50 |
| --- | --- |
| O=C(Nc1ccc(OC2CC(F)(F)C2)cc1)Nc1cccnc1Oc1ccccc1C1(C(F)(F)F)CCO1 (racemic) [S36, 1-(4-(3,3-difluorocyclobutoxy)phenyl)-3-(2-(2-(2-(trifluoromethyl)oxetan-2-yl)phenoxy)pyridin-3-yl)urea] | 207 nM |
| O=C(Nc1ccc(OC(F)(F)F)cc1)Nc1cccnc1Oc1c(F)cccc1C1(C(F)(F)F)CCO1 (racemic) [S37] | 220 nM |
| O=C(Nc1ccc(C(F)(F)F)cn1)Nc1cccnc1Oc1ccccc1C1(C(F)(F)F)CCO1 (racemic) [S38, 1-(2-(2-(2-(trifluoromethyl)oxetan-2-yl)phenoxy)pyridin-3-yl)-3-(5-(trifluoromethyl)pyridin-2-yl)urea] | 248 nM |
| O=C(Nc1ccc(C(F)F)cc1)Nc1cccnc1Oc1ccccc1C1(C(F)(F)F)CCO1 (racemic) [S39, 1-(4-(difluoromethyl)phenyl)-3-(2-(2-(2-(trifluoromethyl)oxetan-2-yl)phenoxy)pyridin-3-yl)urea] | 259 nM |
| O=C(Nc1cc(OC(F)(F)F)ccc1F)Nc1cccnc1Oc1ccc(F)cc1C1(C(F)(F)F)CCO1 (racemic) [S40, 1-(2-(4-fluoro-2-(2-(trifluoromethyl)oxetan-2-yl)phenoxy)pyridin-3-yl)-3-(2-fluoro-5-(trifluoromethoxy)phenyl)urea] | 278 nM |
| Cc1ccc(NC(=O)Nc2ccc3c(c2)OC(F)(F)O3)c(Oc2ccc(F)cc2C2(C(F)(F)F)CCO2)n1 (racemic) [S41, 1-(2,2-difluorobenzo[d][1,3]dioxol-5-yl)-3-(2-(4-fluoro-2-(2-(trifluoromethyl)oxetan-2-yl)phenoxy)-6-methylpyridin-3-yl)urea] | 287 nM |
| Cc1ccc(NC(=O)Nc2ccccc2)c(Oc2ccc(F)cc2C2(C(F)(F)F)CCO2)n1 (racemic) [S42, 1-(2-(4-fluoro-2-(2-(trifluoromethyl)oxetan-2-yl)phenoxy)-6-methylpyridin-3-yl)-3-phenylurea] | 324 nM |
| O=C(Nc1ccc(OC(F)F)cc1)Nc1cccnc1Oc1ccccc1C1(C(F)(F)F)CCO1 (racemic) [S43] | 334 nM |
| COc1ccc(F)c(NC(=O)Nc2ccc(C)nc2Oc2ccccc2C2(C(F)(F)F)CCO2)c1 (racemic) [S44, 1-(2-fluoro-5-methoxyphenyl)-3-(6-methyl-2-(2-(2-(trifluoromethyl)oxetan-2-yl)phenoxy)pyridin-3-yl)urea] | 348 nM |
| Cc1ncc(NC(=O)Nc2ccc(OC(F)(F)F)cc2F)c(Oc2ccccc2C2(C(F)(F)F)CCO2)n1 (racemic) [S45] | 382 nM |
| O=C(Nc1ccc(Cl)cn1)Nc1cccnc1Oc1ccccc1C1(C(F)(F)F)CCO1 (racemic) [S46, 1-(5-chloropyridin-2-yl)-3-(2-(2-(2-(trifluoromethyl)oxetan-2-yl)phenoxy)pyridin-3-yl)urea] | 384 nM |
| COc1ccc(F)c(NC(=O)Nc2cccnc2Oc2ccccc2C2(C(F)(F)F)CCO2)c1 (racemic) [S47, 1-(2-fluoro-5-methoxyphenyl)-3-(2-(2-(2-(trifluoromethyl)oxetan-2-yl)phenoxy)pyridin-3-yl)urea] | 392 nM |
| Cc1ccc(NC(=O)Nc2ccc(F)cc2)c(Oc2ccc(F)cc2C2(C(F)(F)F)CCO2)n1 (racemic) [S48, 1-(2-(4-fluoro-2-(2-(trifluoromethyl)oxetan-2-yl)phenoxy)-6-methylpyridin-3-yl)-3-(4-fluorophenyl)urea] | 408 nM |
| O=C(Nc1cccc(OC(F)(F)F)c1)Nc1cccnc1Oc1ccc(F)cc1C1(C(F)(F)F)CCO1 (racemic) [S49, 1-(2-(4-fluoro-2-(2-(trifluoromethyl)oxetan-2-yl)phenoxy)pyridin-3-yl)-3-(3-(trifluoromethoxy)phenyl)urea] | 419 nM |
| O=C(Nc1ccc(OC(F)(F)F)cn1)Nc1cccnc1Oc1ccccc1C1(C(F)(F)F)CCO1 (racemic) [S50, 1-(5-(trifluoromethoxy)pyridin-2-yl)-3-(2-(2-(2-(trifluoromethyl)oxetan-2-yl)phenoxy)pyridin-3-yl)urea] | 465 nM |
| COc1ccc(NC(=O)Nc2cccnc2Oc2ccccc2C2(C(F)(F)F)CCO2)c(F)c1 (racemic) [S51, 1-(2-fluoro-4-methoxyphenyl)-3-(2-(2-(2-(trifluoromethyl)oxetan-2-yl)phenoxy)pyridin-3-yl)urea] | 473 nM |
| [2H]C([2H])([2H])Oc1ccc(NC(=O)Nc2cccnc2Oc2ccccc2C2(C(F)(F)F)CCO2)c(F)c1 (racemic) [S52, 1-(2-fluoro-4-(methoxy-d3)phenyl)-3-(2-(2-(2-(trifluoromethyl)oxetan-2-yl)phenoxy)pyridin-3-yl)urea] | 500 nM |
| O=C(Nc1ccc(F)cc1)Nc1cccnc1Oc1ccccc1C1(C(F)(F)F)CCO1 (racemic) [S53, 1-(4-fluorophenyl)-3-(2-(2-(2-(trifluoromethyl)oxetan-2-yl)phenoxy)pyridin-3-yl)urea] | 522 nM |
| Cc1ccc(NC(=O)Nc2ccc(F)cn2)c(Oc2ccc(F)cc2C2(C(F)(F)F)CCO2)n1 (racemic) [S54, 1-(2-(4-fluoro-2-(2-(trifluoromethyl)oxetan-2-yl)phenoxy)-6-methylpyridin-3-yl)-3-(5-fluoropyridin-2-yl)urea] | 549 nM |
